Assay results from patent US12557815B2, “Herbicide combinations comprising glufosinate and pyraflufen-ethyl” (BASF SE, priority 2020, dated 2026).

Test system: Kochia (Bassia scoparia)
Assay: Greenhouse post emergence treatment, visual herbicidal control on a scale from 0 to 100
Assay type: in vivo
Excerpt: Synergism can be described as an interaction where the combined effect of two or more compounds is greater than the sum of the individual effects of each of the compounds. The presence of a synergistic effect in terms of percent control, between two mixing partners (X and Y) can be calculated using the Colby equation (Colby, S. R., 1967, Calculating Synergistic and Antagonistic Responses in Herbicide Combinations, Weeds, 15, 21-22):
When the observed combined control effect is greater than the expected (calculated) combined control effect (E), then the combined effect is synergistic.
Weeds included Kochia (Bassia scoparia). However, the herbicidal effect afforded by the compounds, mixtures or compositions is not limited to these species. The analysis of synergism or antagonism between the mixtures or compositions was determined using Colby's equation.
Pots with 0.3 L of volume were filled with soil (SunGro Horticulture, Agawam, MA 01001) to grow one plant per pot in the greenhouse until the desired developmental stage. Environmental conditions inside the greenhouse were set up for 25° C., 75% relative humidity, and 12 h light day^−1 with natural sunlight or 500 […] PAR for cloudy days. […] During this time, the plants were tended, and their response to the individual treatments was evaluated. […]

Row | SMILES | Herbicidal activity against Kochia (21 DAT) Found (Glufosinate 420 g ai/ha alone, visual scale 0 to 100 (100 = complete destruction), mean of three replications) | Herbicidal activity against Kochia (21 DAT) Found (Pyraflufen 0.2 g ai/ha alone, visual scale 0 to 100, mean of three replications)
1 | CP(=O)(O)CCC(N)C(=O)O (racemic) [Glufosinate, (2RS)-2-amino-4-[hydroxy(methyl)phosphinoyl]butyric acid] | 25 | –
2 | CCOC(=O)COc1cc(-c2nn(C)c(OC(F)F)c2Cl)c(F)cc1Cl [Pyraflufen, pyraflufen-ethyl] | – | 32
